Test results from BindingDB's records for doi:10.1016/j.bioorg.2016.10.002 (Hazara University, 2016).

How the values were obtained:
Acetylcholinesterase = Acetylcholinesterase (Electrophorus electricus, UniProt O42275); experiment: In vitro AChE and BChE Assay; conditions: pH 8
Method: (§1) The synthesized compounds (each separately) were dissolved in a mixture of DMSO (1 ml) and methanol (9 ml) and then diluted in KH2PO4/K2HPO4 buffer (0.1 M, pH 8.0) to obtain desired concentration. […] The mixture was pre-incubated at 30 °C for 10 min and followed by adding 1 mM ATCI or BTCI and incubated again for 15 min. […] Instead of inhibitor, DMSO was used asnegative control to subtract its effect on activity. All reactions were carried out in triplicate.

[1] = target: Carboxylic ester hydrolase (Equus caballus, UniProt Q9N1N9); experiment: In vitro AChE and BChE Assay; conditions: pH 8
Sequence of Carboxylic ester hydrolase (Q9N1N9 whole entry): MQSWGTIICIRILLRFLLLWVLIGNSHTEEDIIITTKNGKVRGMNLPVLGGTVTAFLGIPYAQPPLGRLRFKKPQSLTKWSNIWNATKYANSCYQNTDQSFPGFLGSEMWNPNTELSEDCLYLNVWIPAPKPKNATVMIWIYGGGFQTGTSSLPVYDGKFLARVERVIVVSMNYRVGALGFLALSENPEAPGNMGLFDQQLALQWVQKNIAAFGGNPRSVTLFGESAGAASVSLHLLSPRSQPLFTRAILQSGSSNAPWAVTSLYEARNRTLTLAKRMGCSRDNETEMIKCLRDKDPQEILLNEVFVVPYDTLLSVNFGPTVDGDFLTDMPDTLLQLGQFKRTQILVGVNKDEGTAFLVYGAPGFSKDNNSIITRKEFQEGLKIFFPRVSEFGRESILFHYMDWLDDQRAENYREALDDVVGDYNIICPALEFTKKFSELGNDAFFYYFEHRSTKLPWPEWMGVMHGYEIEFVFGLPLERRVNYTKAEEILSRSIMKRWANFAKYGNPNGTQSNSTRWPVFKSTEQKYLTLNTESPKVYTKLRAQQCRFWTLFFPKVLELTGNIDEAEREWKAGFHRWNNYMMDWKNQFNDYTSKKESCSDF
Method: as §1

Sequence of Acetylcholinesterase (O42275 whole entry): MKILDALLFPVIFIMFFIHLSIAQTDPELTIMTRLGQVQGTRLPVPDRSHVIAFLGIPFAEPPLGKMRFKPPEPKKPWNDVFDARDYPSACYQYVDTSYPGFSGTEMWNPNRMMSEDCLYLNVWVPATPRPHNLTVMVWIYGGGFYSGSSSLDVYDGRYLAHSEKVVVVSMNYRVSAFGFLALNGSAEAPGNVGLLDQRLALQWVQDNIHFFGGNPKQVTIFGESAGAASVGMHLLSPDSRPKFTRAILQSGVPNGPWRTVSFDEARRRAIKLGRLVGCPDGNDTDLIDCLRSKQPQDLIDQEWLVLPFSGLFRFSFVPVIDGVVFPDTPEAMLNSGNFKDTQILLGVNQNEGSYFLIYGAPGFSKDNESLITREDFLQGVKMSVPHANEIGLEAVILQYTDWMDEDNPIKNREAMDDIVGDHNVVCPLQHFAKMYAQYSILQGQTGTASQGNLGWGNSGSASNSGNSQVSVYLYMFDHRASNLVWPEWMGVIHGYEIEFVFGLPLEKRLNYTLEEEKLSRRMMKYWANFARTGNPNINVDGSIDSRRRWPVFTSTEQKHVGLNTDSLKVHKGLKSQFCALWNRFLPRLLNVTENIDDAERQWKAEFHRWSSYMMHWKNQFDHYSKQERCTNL

SMILES	IC50 (Acetylcholinesterase) [µM]	IC50 [1] [µM]
CC(=O)C1=C(C)NC(N)=NC1c1ccc(OCc2ccccc2)cc1 (stereo not drawn) [1-(2-Amino-4-(4-(benzyloxy)phenyl)-6-methyl-1,4-dihydropyrimidin-5-yl)ethanone (2c)]	39.5	
CC(=O)C1=C(C)NC(N)=NC1c1ccc(Br)cc1 (stereo not drawn) [1-(2-Amino-4-(4-bromophenyl)-6-methyl-1,4-dihydropyrimidin-5-yl)ethanone (2b)]	58	
CC(=O)C1=C(C)NC(N)=NC1c1ccc(Cl)cc1 (stereo not drawn) [1-(2-Amino-4-(4-chlorophenyl)-6-methyl-1,4-dihydropyrimidin-5-yl)ethanone (2e)]	68.3	
CC(=O)C1=C(C)NC(N)=NC1c1ccccc1 (stereo not drawn) [1-(2-Amino-6-methyl-4-phenyl-1,4-dihydropyrimidin-5-yl)ethanone (2a)]	41.3	
CC(=O)C1=C(C)NC(=S)NC1c1ccc(OCc2ccccc2)cc1 (stereo not drawn) [1-(4-(4-(Benzyloxy)phenyl)-6-methyl-2-thioxo-3,4-tetrahydropyrimidin-5-yl)ethanone (1c)]	28.1	
CC(=O)C1=C(C)NC(=S)NC1c1ccc(Br)cc1 (stereo not drawn) [1-(4-(4-Bromophenyl)-6-methyl-2-thioxo-3,4-tetrahydropyrimidin-5-yl)ethanone (1b)]	53.2	
CC(=O)C1=C(C)NC(=S)NC1c1ccc(Cl)cc1 (stereo not drawn) [1-(4-(4-Chlorophenyl)-6-methyl-2-thioxo-3,4-tetrahydropyrimidin-5-yl)ethanone (1e)]	59.9	
CC(=O)C1=C(C)NC(=S)NC1c1ccc(C)cc1 (stereo not drawn) [1-(6-Methyl-2-thioxo-4-p-tolyl-3,4-tetrahydropyrimidin-5-yl)ethanone (1d)]	55.9	
CC(=O)C1=C(C)NC(NCC(=O)Nc2ccc(C)cc2)=NC1c1ccc(Br)cc1 (stereo not drawn) [2-(5-Acetyl-4-(4-bromophenyl)-6-methyl-1,4-dihydropyrimidin-2-ylamino)-N-p-tolylacetamide (5e)]	3.13	20.9
CC(=O)C1=C(C)NC(NCC(=O)Nc2ccccc2)=NC1c1ccc(Br)cc1 (stereo not drawn) [2-(5-Acetyl-4-(4-bromophenyl)-6-methyl-1,4-dihydropyrimidin-2-ylamino)-N-phenylacetamide (5c)]	12.9	38.5
CC(=O)C1=C(C)NC(SCC(=O)Nc2ccc(C)cc2)=NC1c1ccc(Br)cc1 (stereo not drawn) [2-(5-Acetyl-4-(4-bromophenyl)-6-methyl-1,4-dihydropyrimidin-2-ylthio)-N-p-tolylacetamide (4e)]	1.39	52.8
CC(=O)C1=C(C)NC(SCC(=O)Nc2ccccc2)=NC1c1ccc(Br)cc1 (stereo not drawn) [2-(5-Acetyl-4-(4-bromophenyl)-6-methyl-1,4-dihydropyrimidin-2-ylthio)-N-phenylacetamide (4c)]	8.23	24.5
CC(=O)C1=C(C)NC(NCC(=O)Nc2ccc(C)cc2)=NC1c1ccc(Cl)cc1 (stereo not drawn) [2-(5-Acetyl-4-(4-chlorophenyl)-6-methyl-1,4-dihydropyrimidin-2-ylamino)-N-p-tolylacetamide (5f)]	3.08	26.4
CC(=O)C1=C(C)NC(SCC(=O)Nc2ccc(C)cc2)=NC1c1ccc(Cl)cc1 (stereo not drawn) [2-(5-Acetyl-4-(4-chlorophenyl)-6-methyl-1,4-dihydropyrimidin-2-ylthio)-N-p-tolylacetamide (4f)]	1.11	50
CC(=O)C1=C(C)NC(NCC(=O)Nc2ccc(C)cc2)=NC1c1ccc(C)cc1 (stereo not drawn) [2-(5-Acetyl-6-methyl-4-p-tolyl-1,4-dihydropyrimidin-2-ylamino)-N-p-tolylacetamide (5h)]	7.87	29.4
CC(=O)C1=C(C)NC(SCC(=O)Nc2ccc(C)cc2)=NC1c1ccc(C)cc1 (stereo not drawn) [2-(5-Acetyl-6-methyl-4-p-tolyl-1,4-dihydropyrimidin-2-ylthio)-N-p-tolylacetamide (4h)]	7.63	56.3
CC(=O)C1=C(C)NC(NCC(=O)Nc2ccc(Cl)cc2)=NC1c1ccccc1 (stereo not drawn) [2-(5-Acetyl-6-methyl-4-phenyl-1,4-dihydropyrimidin-2-ylamino)-N-(4-chlorophenyl)acetamide (5b)]	2.01	27.2
CC(=O)C1=C(C)NC(NCC(=O)Nc2ccccc2)=NC1c1ccccc1 (stereo not drawn) [2-(5-Acetyl-6-methyl-4-phenyl-1,4-dihydropyrimidin-2-ylamino)-N-phenylacetamide (5a)]	5.33	15
CC(=O)C1=C(C)NC(SCC(=O)Nc2ccccc2)=NC1c1ccccc1 (stereo not drawn) [2-(5-Acetyl-6-methyl-4-phenyl-1,4-dihydropyrimidin-2-ylthio)-N-phenylacetamide (4a)]	0.17	2.37
CC(=O)C1=C(C)NC(SCC(=O)Nc2ccc(Cl)cc2)=NC1c1ccccc1 (stereo not drawn) [2-((5-Acetyl-6-methyl-4-phenyl-1,4-dihydropyrimidin-2-yl)thio)-N-(4-chlorophenyl)acetamide (4b)]	1.97	16.4
CC(=O)C1=C(C)NC(=S)NC1c1ccccc1 (stereo not drawn) [5-Aceto-6-methyl-4-phenyl-3,4-dihydropyrimidin-2(1H)-thione (1a)]	87.6	
